The assay addresses T1, PAR-1 receptor (Homo sapiens, UniProt P25116).
T1 construct: endogenous in cells; host or cells: HEK 293
T1 sequence (P25116 22-425): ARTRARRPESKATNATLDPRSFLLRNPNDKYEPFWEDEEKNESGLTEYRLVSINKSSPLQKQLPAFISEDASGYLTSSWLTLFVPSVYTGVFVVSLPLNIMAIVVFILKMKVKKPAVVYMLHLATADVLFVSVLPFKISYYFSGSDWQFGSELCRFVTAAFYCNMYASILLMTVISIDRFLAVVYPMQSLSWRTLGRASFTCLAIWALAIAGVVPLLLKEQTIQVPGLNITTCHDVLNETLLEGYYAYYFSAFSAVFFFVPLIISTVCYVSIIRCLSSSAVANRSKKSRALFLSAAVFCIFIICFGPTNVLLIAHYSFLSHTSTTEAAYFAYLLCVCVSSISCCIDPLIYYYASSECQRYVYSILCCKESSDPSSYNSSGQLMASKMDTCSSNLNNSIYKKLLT
In words: PAR-1 FLIPR Assay. The format is cell-based. The note with it: HEK 293 cells, FLIPR calcium-5 dye; inhibition of signal from PAR1 selective receptor-activating peptide at 80% activation concentration (1.4-2.0 uM); compound incubated 30 minutes at 25 degrees. On the procedure:
The following assay was used to determine the ability of the inventive compounds to inhibit the PAR-1 receptor.
HEK 293 Cells are grown in media containing DMEM, 10% FBS pen/strep/L-Glutamine and non-essential amino acids. The cells are plated in 384-well PDL coated plates at 12000 cells/well and incubated overnight at 37° C./5% CO2. Media is then removed from the cells, which are then incubated with buffer (Hank's containing HEPES and Chaps) containing FLIPR calcium-5 dye, made with buffer containing probenecid, for 60 minutes at 37° C. Varying concentrations of compound in a final concentration of 5% DMSO are then added to the cells and incubated at 25 degrees for 30 minutes. The plates are then added to a FLIPR Tetra cellular screening system and the device adds a concentration of a PAR1 selective receptor-activating peptide with the sequence Ala-parafluoroPhe-Arg-Cha-Cit-Tyr-NH2 (SEQ ID NO: 3) (prepared in water) at a concentration equal to the effective concentration that achieves 80% activation of signaling on the day of the experiment. The range is from 1.4-2.0 uM peptide. The FLIPR reads at an excitation wavelength of 480 nm and an emission wavelength of 535 nm, and performs 60 scans over a 1-2 min reading time. The data are analyzed by taking the peak signal over a portion of the range of the 60 scans and dividing this signal by the minimum signal for that same range. The data are expressed as percent inhibition of the maximum divided by the minimum signal achieved at 80% activation produced by the PAR1 activating peptide on the test day.
On to `COc1ncccc1-c1ccc(/C=C/[C@@H]2[C@H]3[C@@H](CC(F)(F)[C@H]2C)S(=O)(=O)N[C@@H]3C)nc1` [Example 1, (3R,3aR,4S,5S,7aR)-6,6-difluoro-4-((E)-2-(2′-methoxy-[3,3′-bipyridin]-6-yl)vinyl)-3,5-dimethyloctahydrobenzo[d]isothiazole 1,1-dioxide], for which the IC50 (in general, the concentration at which inhibition is half-maximal) worked out at 5.1 nM.
Consider `C[C@H]1NS(=O)(=O)[C@@H]2CC(F)(F)[C@@H](C)[C@H](/C=C/c3ccc(-c4cccnc4C#N)cn3)[C@@H]21` [Example 2, (3R,3aR,4S,5S,7aR)-6,6-difluoro-4-((E)-2-(2′-cyano-[3,3′-bipyridin]-6-yl)vinyl)-3,5-dimethyloctahydrobenzo[d]isothiazole 1,1-dioxide], for which the IC50 stood at 55.8 nM.
For `C[C@H]1NS(=O)(=O)[C@@H]2CC(F)(F)[C@@H](C)[C@H](/C=C/c3ccc(-c4ccccc4C#N)cn3)[C@@H]21` [Example 3, (3R,3aR,4S,5S,7aR)-4-((E)-2-(5-(2-cyanophenyl)pyridin-2-yl)vinyl)-6,6-difluoro-3,5-dimethyloctahydrobenzo[d]isothiazole-1,1-dioxide], the IC50 was determined as 11.9 nM.
On to `CC(=O)N1[C@H](C)[C@H]2[C@@H](/C=C/c3ccc(-c4ccccc4C#N)cn3)[C@H](C)C(F)(F)C[C@H]2S1(=O)=O` [Example 4, 1-((3R,3aR,4S,5S,7aR)-6,6-difluoro-4-((E)-2-(5-(2-cyanophenyl)pyridin-2-yl)vinyl)-3,5-dimethyl-1,1-dioxidohexahydrobenzo[d]isothiazol-2(3H)-yl)ethanone], for which the IC50 amounted to 483 nM.
Under `C[C@H]1NS(=O)(=O)[C@@H]2CC(F)(F)[C@@H](C)[C@H](/C=C/c3ccc(-c4cccc(F)c4)cn3)[C@@H]21` [Example 5, (3R,3aR,4S,5S,7aR)-6,6-difluoro-4-((E)-2-(5-(3-fluorophenyl)pyridin-2-yl)vinyl)-3,5-dimethyloctahydrobenzo[d]isothiazole 1,1-dioxide] stands 19 nM; under `Cc1nc(/C=C/[C@@H]2[C@H]3[C@@H](CC(F)(F)[C@H]2C)S(=O)(=O)N[C@@H]3C)ccc1-c1ccccc1C#N` [Example 6, (3R,3aR,4S,5S,7aR)-4-((E)-2-(5-(2-cyanophenyl)pyridin-2-yl)-6-methylvinyl)-6,6-difluoro-3,5-dimethyloctahydrobenzo[d]isothiazole-1,1-dioxide], 66.7 nM.
Consider `Cc1nc(/C=C/[C@@H]2[C@H]3[C@@H](CC(F)(F)[C@H]2C)S(=O)(=O)N[C@@H]3C)ccc1-c1cccnc1C#N` [Example 7], for which the IC50 is 41 nM.
Turning to `C[C@@H]1[C@H](/C=C/c2ccc(-c3ccccc3C#N)cn2)[C@H]2[C@@H](CC1(F)F)S(=O)(=O)N[C@@H]2C` [Example 8, (3R,3aR,4S,5R,7aR)-4-((E)-2-(5-(2-cyanophenyl)pyridin-2-yl)vinyl)-6,6-difluoro-3,5-dimethyloctahydrobenzo[d]isothiazole-1,1-dioxide], the IC50 worked out at 178 nM.
For the compound `CC(=O)N1[C@H](C)[C@H]2[C@@H](/C=C/c3ccc(-c4ccccc4C#N)cn3)[C@@H](C)C(F)(F)C[C@H]2S1(=O)=O` [Example 9, 1-((3R,3aR,4S,5R,7aR)-6,6-difluoro-4-((E)-2-(5-(2-cyanophenyl)pyridin-2-yl)vinyl)-3,5-dimethyl-1,1-dioxidohexahydrobenzo[d]isothiazol-2(3H)-yl)ethanone], the IC50 amounted to 564 nM.
`CC[C@@H]1CC[C@@H]2[C@H]([C@H]1/C=C/c1ccc(-c3ccccc3C#N)cn1)[C@@H](C)NS2(=O)=O` [Example 10, 2-(6-((E)-2-((3R,3aR,4R,5R,7aR)-5-ethyl-3-methyl-1,1-dioxidooctahydrobenzo[d]isothiazol-4-yl)vinyl)pyridin-3-yl)benzonitrile]: the IC50 is 0.97 nM.
Turning to `CC[C@@H]1CC[C@@H]2[C@H]([C@H]1/C=C/c1ccc(-c3ccccc3C#N)cn1)[C@@H](C)N(C(=O)OC(C)(C)C)S2(=O)=O` [Example 11, (3R,3aR,4R,5R,7aR)-tert-butyl 4-((E)-2-(5-(2-cyanophenyl)pyridin-2-yl)vinyl)-5-ethyl-3-methylhexahydrobenzo[d]isothiazole-2(3H)-carboxylate1,1-dioxide], the IC50 stood at 286 nM.
On to `COc1ncccc1-c1ccc(/C=C/[C@@H]2[C@@H]3[C@@H](C)NS(=O)(=O)[C@]3(C)CC(F)(F)[C@H]2C)nc1` [Example 12, (3R,3aR,4S,5S,7aR)-6,6-difluoro-4-((E)-2-(2′-methoxy-[3,3′-bipyridin]-6-yl)vinyl)-3,5,7a-trimethyloctahydrobenzo[d]isothiazole 1,1-dioxide], for which the IC50 amounted to 4.2 nM.
Under `COc1ncccc1-c1ccc(/C=C/[C@@H]2[C@@H]3[C@@H](C)N(C(=O)OC(C)(C)C)S(=O)(=O)[C@@H]3CC(F)(F)[C@H]2C)nc1` [Example 13, (3R,3aR,4S,5S,7aR)-tert-butyl 6,6-difluoro-4-((E)-2-(2′-methoxy-[3,3′-bipyridin]-6-yl)vinyl)-3,5-dimethylhexahydrobenzo[d]isothiazole-2(3H)-carboxylate 1,1-dioxide] stands 278 nM; under `C[C@@H]1[C@H]2[C@@H](/C=C/c3ccc(-c4cccc(F)c4)cn3)[C@H](C)C(F)(F)C[C@H]2S(=O)(=O)N1C(=O)OC(C)(C)C` [Example 14, (3R,3aR,4S,5S,7aR)-tert-butyl 6,6-difluoro-4-((E)-2-(5-(3-fluorophenyl)pyridin-2-yl)vinyl)-3,5-dimethylhexahydrobenzo[d]isothiazole-2(3H)-carboxylate 1,1-dioxide], 383 nM; under `C[C@H]1NS(=O)(=O)[C@]2(C)CC(F)(F)[C@@H](C)[C@H](/C=C/c3ccc(-c4cccc(F)c4)cn3)[C@H]12` [Example 15, (3R,3aR,4S,5S,7aR)-6,6-difluoro-4-((E)-2-(5-(3-fluorophenyl)pyridin-2-yl)vinyl)-3,5,7a-trimethyloctahydrobenzo[d]isothiazole 1,1-dioxide], 55.1 nM.
For the compound `C[C@H]1NS(=O)(=O)[C@]2(C)CC(F)(F)[C@@H](C)[C@H](/C=C/c3ccc(-c4ccccc4C#N)cn3)[C@H]12` [Example 16, (3R,3aR,4S,5S,7aR)-6,6-difluoro-4-((E)-2-(5-(2-cyanophenyl)pyridin-2-yl)vinyl)-3,5,7a-trimethyloctahydrobenzo[d]isothiazole 1,1-dioxide], the IC50 was found to be 11.8 nM.
For `C[C@H]1NS(=O)(=O)[C@]2(C)CC(F)(F)[C@@H](C)[C@H](/C=C/c3ccc(-c4cccnc4C#N)cn3)[C@H]12` [Example 17, (3R,3aR,4S,5S,7aR)-6,6-difluoro-4-((E)-2-(2′-cyano-[3,3′-bipyridin]-6-yl)vinyl)-3,5,7a-trimethyloctahydrobenzo[d]isothiazole 1,1-dioxide] the value was 12 nM; for `COc1ncccc1-c1ccc(/C=C/[C@@H]2[C@@H]3[C@@H](C)NS(=O)(=O)[C@]3(CC(N)=O)CC(F)(F)[C@H]2C)nc1` [Example 18, 2-((3R,3aR,4S,5S,7aR)-6,6-difluoro-4-((E)-2-(2′-methoxy-[3,3′-bipyridin]-6-yl)vinyl)-3,5-dimethyl-1,1-dioxidooctahydrobenzo[d]isothiazol-7a-yl)acetamide], 36.8 nM; for `COc1ncccc1-c1ccc(/C=C/[C@@H]2[C@@H]3[C@@H](C)N(C(=O)OC(C)(C)C)S(=O)(=O)[C@@]3(CC(N)=O)CC(F)(F)[C@H]2C)nc1` [Example 19, (3R,3aR,4S,5S,7aS)-tert-butyl 7a-(2-amino-2-oxoethyl)-6,6-difluoro-4-((E)-2-(2′-methoxy-[3,3′-bipyridin]-6-yl)vinyl)-3,5-dimethylhexahydrobenzo[d]isothiazole-2(3H)-carboxylate 1,1-dioxide], 54 nM.
For `C[C@H]1NS(=O)(=O)[C@]2(CC(N)=O)CC(F)(F)[C@@H](C)[C@H](/C=C/c3ccc(-c4cccc(F)c4)cn3)[C@H]12` [Example 20, 2-((3R,3aR,4S,5S,7aR)-6,6-difluoro-4-((E)-2-(5-(3-fluorophenyl)pyridin-2-yl)vinyl)-3,5-dimethyl-1,1-dioxidooctahydrobenzo[d]isothiazol-7a-yl)acetamide] the value was 5 nM; for `COc1ncccc1-c1ccc(/C=C/[C@@H]2[C@@H]3[C@@H](C)N(C(=O)OC(C)(C)C)S(=O)(=O)[C@]3(CC(N)=O)CC(F)(F)[C@H]2C)nc1` [Example 21], 110 nM.

Source of the values: US20170240539A1, “Preparation and Use of Cyclic Sulfonamide Derivatives as PAR-1 Receptor Antagonists” (MERCK SHARP & DOHME CORP., priority 2014, published 2017).
